“Also recorded” adds a separate entry of the source. Read-outs that look alike come from different tables or passages of the source.
Assay: Ocular tissue and plasma pharmacokinetics, 15 mg/kg single and BID oral, Dutch Belted rabbits (Example 3/5)
Assay type: in vivo
Conditions: for MRTlast / Tlast / MRT inf / half-life: Choroid-RPE; for concentration at 1 h / concentration at 6 h / concentration at 168 h / concentration at 24 h / concentration at 96 h / concentration at 240 h / concentration at 0 h / MRT inf / half-life: Dutch Belted, rabbit
Experimental: Study design including group designation and dose levels are outlined in Table 4. […] Fifteen Dutch Belted and 5 New Zealand White rabbits were used as un-dosed controls. […] The dose volume was 5 mL/kg/dose for all groups. Safety was assessed with toxicological and ophthalmic examinations including slit lamp biomicroscopy, indirect ophthalmoscopy, rebound tonometry, and ultrasonic corneal pachymetry.
Analyst® software (Version 1.6.2) was used to capture the LC-MS/MS data and integrate the peak areas. Calibration standards and QCs were prepared in a blank solution of 75%:25% acetonitrile:water (v:v), ranging from 10 ng/mL to 10,000 ng/mL. Matrix matched standard and QC samples were prepared by mixing 2 μL of standard or QC sample above with 18 μL of appropriate ocular tissue or plasma. The final calibration standards ranged from 1 ng/mL to 1000 ng/mL. All plasma, retina, choroid-RPE, optic nerve, and vitreous humor samples were analyzed in a single run. Iris-ciliary body samples were analyzed in two runs due to a need for sample dilution. […] Dilution QCs were prepared at 5000 ng/mL where appropriate. Two sets of standards were used to bracket the analytical run at the beginning and end of the run. Three sets of QCs were included the analytical runs. All concentrations in ocular matrices are reported as ng/g based on the assumed density of 1 g/mL.
1, 6, 24, 96, 168, and 240 hours post-dose on Day 15, with the eyes collected at the same time as blood sampling. A single blood sample was taken from Groups 4 and 5 at sacrifice. Plasma, vitreous humor (VH), retina, choroid-retina pigmented epithelium (Choroid-RPE), optic nerve (ON), and iris-ciliary body (I-CB) were analyzed by LC-MS/MS to quantify test article concentrations. The lower limit of quantitation (LLOQ) in plasma and vitreous humor was 1.0 ng/mL. The LLOQ was 6.0 ng/g in retina, Choroid-RPE, and I-CB and the optic nerve LLOQ was 15 ng/g, assuming tissue density of 1 g/mL where relevant.
Study design including group designation and dose levels are outlined in Table 18.

[1] = DB rabbit, 15 mg/kg BID, Day 15
[2] = DB rabbit, 15 mg/kg single dose, Day 1
[3] = DB rabbit, 15 mg/kg BID oral, Day 15, 24 h
[4] = DB rabbit, 15 mg/kg BID oral, Day 15, 96 h
[5] = DB rabbit, 15 mg/kg BID oral, Day 15, 168 h
[6] = DB rabbit, 15 mg/kg BID oral, Day 15, 240 h
[7] = DB rabbit, 15 mg/kg single oral dose, Day 1, 0 h
[8] = DB rabbit, 15 mg/kg single oral dose, Day 1, 0 h, 15 mg/kg
[9] = DB rabbit, 15 mg/kg single oral dose, Day 1, 24 h
[10] = DB rabbit, 15 mg/kg single oral dose, Day 1, 96 h
[11] = DB rabbit, 15 mg/kg single oral dose, Day 1, 96 h, 15 mg/kg
[12] = DB rabbit, 15 mg/kg single oral dose, Day 1, 168 h
[13] = DB rabbit, 15 mg/kg single oral dose, Day 1, 240 h
[14] = DB rabbits, Day 1, 15 mg/kg single dose, 0 hr
[15] = choroid-RPE, po, 15 mg/kg, DB rabbit, 15 mg/kg BID, Day 15
[16] = choroid-RPE, po, 15 mg/kg, DB rabbit, 15 mg/kg single dose, Day 1

CC(=O)c1nn(CC(=O)N2C[C@H](F)C[C@H]2C(=O)Nc2cccc(Br)n2)c2ccc(-c3cnc(C)nc3)cc12 [Compound 1, (2S,4R)-1-(2-(3-Acetyl-5-(2-methylpyrimidin-5-yl)-1H-indazol-1-yl)acetyl)-N-(6-bromopyridin-2-yl)-4-fluoropyrrolidine-2-carboxamide]
MRTlast [1]: 68.5 h | Tlast [1]: 240 h | MRTlast [2]: 49.7 h | Tlast [2]: 240 h | Vitreous humor concentration after 24 hours post-dose (non-detectable) (DB rabbit, 15 mg/kg BID for 14 days): < 1.0 ng/mL | Mean Aqueous Humor concentration (DB rabbit, 15 mg/kg BID oral, Day 15, 0 h): BLQ^a | Mean Aqueous Humor concentration (DB rabbit, 15 mg/kg BID oral, Day 15, 6 h): BLQ^a | Mean Aqueous Humor concentration [3]: BLQ^a | Mean Vitreous Humor concentration [3]: BLQ^a | Mean plasma concentration (DB rabbit, 15 mg/kg BID oral, Day 15, 24 h, 15 mg/kg): 5.6 ng/mL | Mean Aqueous Humor concentration [4]: BLQ^a | Mean Vitreous Humor concentration [4]: BLQ^a | Mean Aqueous Humor concentration [5]: BLQ^a | Mean Vitreous Humor concentration [5]: BLQ^a | Mean plasma concentration [5]: BLQ^a | Mean Aqueous Humor concentration [6]: BLQ^a | Mean Vitreous Humor concentration [6]: BLQ^a | Mean plasma concentration [6]: BLQ^a | Mean Aqueous Humor concentration [7]: BLQ^a | Mean Vitreous Humor concentration [7]: BLQ^a | Mean plasma concentration [7]: BLQ^a | Mean Choroid-RPE concentration [8]: BLQ^a and BLQ | Mean Iris-Ciliary Body concentration [8]: BLQ^a and BLQ | Mean retina concentration [8]: BLQa and BLQ^a and BLQ | Mean retina concentration (DB rabbit, 15 mg/kg single oral dose, Day 1, 6 h, 15 mg/kg): 30 ng/g | Mean Aqueous Humor concentration [9]: BLQ^a | Mean Vitreous Humor concentration [9]: BLQ^a | Mean retina concentration (DB rabbit, 15 mg/kg single oral dose, Day 1, 24 h, 15 mg/kg): 25 ng/g | Mean Aqueous Humor concentration [10]: BLQ^a | Mean Vitreous Humor concentration [10]: BLQ^a | Mean plasma concentration [11]: no drug was detectable; also recorded: BLQ^a | Mean retina concentration [11]: BLQ^a and BLQ | Mean Vitreous Humor concentration [12]: BLQ^a | Mean plasma concentration [12]: BLQ^a | Mean retina concentration (DB rabbit, 15 mg/kg single oral dose, Day 1, 168 h, 15 mg/kg): BLQ^a and BLQ | Mean Aqueous Humor concentration [13]: BLQ^a | Mean Vitreous Humor concentration [13]: BLQ^a | Mean plasma concentration [13]: BLQ^a | Mean retina concentration (DB rabbit, 15 mg/kg single oral dose, Day 1, 240 h, 15 mg/kg): BLQ^a and BLQ | Accumulation of the drug in Choroid-RPE after repeat dosing (DB rabbit, Day 1 to Day 15): ~6 fold | Mean Choroid-RPE concentration [14]: BLQ | Mean retina concentration [14]: BLQ | Mean retina concentration (DB rabbits, Day 1, 15 mg/kg single dose, 96 hr): BLQ | Mean retina concentration (DB rabbits, Day 1, 15 mg/kg single dose, 168 hr): BLQ | Mean retina concentration (DB rabbits, Day 1, 15 mg/kg single dose, 240 hr): BLQ | concentration at 1 h (aqueous humor, po, 15 mg/kg, DB rabbit, 15 mg/kg BID oral, Day 15, 1 h, read-out: Mean Aqueous Humor concentration): 10.6 ng/mL | concentration at 1 h (aqueous humor, po, 15 mg/kg, DB rabbit, 15 mg/kg single oral dose, Day 1, 1 h, read-out: Mean Aqueous Humor concentration): 3.8 ng/mL | concentration at 6 h (aqueous humor, po, 15 mg/kg, DB rabbit, 15 mg/kg single oral dose, Day 1, 6 h, read-out: Mean Aqueous Humor concentration): 45.3 ng/mL | concentration at 168 h (aqueous humor, po, 15 mg/kg, DB rabbit, 15 mg/kg single oral dose, Day 1, 168 h, read-out: Mean Aqueous Humor concentration): 11.1 ng/mL | concentration at 1 h (choroid-RPE, oral, 15 mg/kg, DB rabbits, Day 1, 15 mg/kg single dose, 1 hr, read-out: Mean Choroid-RPE Concentration): 917 ng/g | concentration at 6 h (choroid-RPE, oral, 15 mg/kg, DB rabbits, Day 1, 15 mg/kg single dose, 6 hr, read-out: Mean Choroid-RPE Concentration): 866 ng/g | concentration at 24 h (choroid-RPE, oral, 15 mg/kg, DB rabbits, Day 1, 15 mg/kg single dose, 24 hr, read-out: Mean Choroid-RPE Concentration): 311 ng/g | concentration at 96 h (choroid-RPE, oral, 15 mg/kg, DB rabbits, Day 1, 15 mg/kg single dose, 96 hr, read-out: Mean Choroid-RPE Concentration): 77.5 ng/g | concentration at 168 h (choroid-RPE, oral, 15 mg/kg, DB rabbits, Day 1, 15 mg/kg single dose, 168 hr, read-out: Mean Choroid-RPE Concentration): 56.3 ng/g | concentration at 240 h (choroid-RPE, oral, 15 mg/kg, DB rabbits, Day 1, 15 mg/kg single dose, 240 hr, read-out: Mean Choroid-RPE Concentration): 28.1 ng/g | concentration at 0 h (choroid-RPE, oral, 15 mg/kg, DB rabbits, Day 15, 15 mg/kg BID, 0 hr, read-out: Mean Choroid-RPE Concentration): 2460 ng/g | concentration at 1 h (choroid-RPE, oral, 15 mg/kg, DB rabbits, Day 15, 15 mg/kg BID, 1 hr, read-out: Mean Choroid-RPE Concentration): 4870 ng/g | concentration at 6 h (choroid-RPE, oral, 15 mg/kg, DB rabbits, Day 15, 15 mg/kg BID, 6 hr, read-out: Mean Choroid-RPE Concentration): 3200 ng/g | concentration at 24 h (choroid-RPE, oral, 15 mg/kg, DB rabbits, Day 15, 15 mg/kg BID, 24 hr, read-out: Mean Choroid-RPE Concentration): 1960 ng/g | concentration at 96 h (choroid-RPE, oral, 15 mg/kg, DB rabbits, Day 15, 15 mg/kg BID, 96 hr, read-out: Mean Choroid-RPE Concentration): 866 ng/g | concentration at 168 h (choroid-RPE, oral, 15 mg/kg, DB rabbits, Day 15, 15 mg/kg BID, 168 hr, read-out: Mean Choroid-RPE Concentration): 485 ng/g | concentration at 240 h (choroid-RPE, oral, 15 mg/kg, DB rabbits, Day 15, 15 mg/kg BID, 240 hr, read-out: Mean Choroid-RPE Concentration): 340 ng/g | MRT inf [15]: 125 h | half-life [15]: 107 h | MRT inf [16]: 81.8 h | half-life [16]: 98.4 h | concentration at 0 h (choroid-RPE, po, 15 mg/kg, DB rabbit, 15 mg/kg BID oral, Day 15, 0 h, read-out: Mean Choroid-RPE concentration): 2460 ng/g | concentration at 1 h (choroid-RPE, po, 15 mg/kg, DB rabbit, 15 mg/kg BID oral, Day 15, 1 h, read-out: Mean Choroid-RPE concentration): 4870 ng/g | concentration at 6 h (choroid-RPE, po, 15 mg/kg, DB rabbit, 15 mg/kg BID oral, Day 15, 6 h, read-out: Mean Choroid-RPE concentration): 3200 ng/g | concentration at 24 h (choroid-RPE, po, 15 mg/kg, DB rabbit, 15 mg/kg BID oral, Day 15, 24 h, read-out: Mean Choroid-RPE concentration): 1960 ng/g | concentration at 96 h (choroid-RPE, po, 15 mg/kg, DB rabbit, 15 mg/kg BID oral, Day 15, 96 h, read-out: Mean Choroid-RPE concentration): 866 ng/g | concentration at 168 h (choroid-RPE, po, 15 mg/kg, DB rabbit, 15 mg/kg BID oral, Day 15, 168 h, read-out: Mean Choroid-RPE concentration): 485 ng/g | concentration at 240 h (choroid-RPE, po, 15 mg/kg, DB rabbit, 15 mg/kg BID oral, Day 15, 240 h, read-out: Mean Choroid-RPE concentration): 340 ng/g | concentration at 1 h (choroid-RPE, po, 15 mg/kg, DB rabbit, 15 mg/kg single oral dose, Day 1, 1 h, read-out: Mean Choroid-RPE concentration): 917 ng/g | concentration at 6 h (choroid-RPE, po, 15 mg/kg, DB rabbit, 15 mg/kg single oral dose, Day 1, 6 h, read-out: Mean Choroid-RPE concentration): 866 ng/g | concentration at 24 h (choroid-RPE, po, 15 mg/kg, DB rabbit, 15 mg/kg single oral dose, Day 1, 24 h, read-out: Mean Choroid-RPE concentration): 311 ng/g | concentration at 96 h (choroid-RPE, po, 15 mg/kg, DB rabbit, 15 mg/kg single oral dose, Day 1, 96 h, read-out: Mean Choroid-RPE concentration): 77.5 ng/g | concentration at 168 h (choroid-RPE, po, 15 mg/kg, DB rabbit, 15 mg/kg single oral dose, Day 1, 168 h, read-out: Mean Choroid-RPE concentration): 56.3 ng/g | concentration at 240 h (choroid-RPE, po, 15 mg/kg, DB rabbit, 15 mg/kg single oral dose, Day 1, 240 h, read-out: Mean Choroid-RPE concentration): 28.1 ng/g

Source: patent US20230126447A1, “OCULAR DRUG DEPOT FOR COMPLEMENT-MEDIATED DISORDERS” (priority 2020, published 2023)
